Laboratory results from the supplement of paper PMC8671470.

These compounds were tested on BV-173 (assay: cell viability (% survival relative to DMSO control, bortezomib = 0%); higher = less cytotoxic). Settings: 100 nM; 72 h.
Method in brief: (§1)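 Fifteen myeloid leukaemia cell lines were exposed to compounds at 1, 10, 100, 1000 or 10000 nM in 384-well plates for 72 h at 37 °C and 5% CO2. Viability was read by CellTiter-Glo luminescence and normalised, with vehicle as 100% and a 10 µM positive control as 0%. Values are percent survival averaged over duplicates.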

SMILES | cell viability [%]
Cc1[nH]nc(C(F)(F)F)c1Cc1sc2c(c1C(=O)N1C[C@](C)(O)CO1)c(=O)n(C)c(=O)n2C(C)C [AZD3965] | 4.97
O=c1cc(-c2ccccc2)oc2c1ccc1ccccc12 [Alpha-Naphtoflavone] | 105

Same assay, conditions: 1000 nM; 72 h

SMILES | cell viability [%]
CN(CCCOc1ccc(Cc2ccccc2)cc1)CCC(=O)O | 99.4
Cc1c2c(=O)n(-c3ccccc3Cl)[nH]c2cc(=O)n1Cc1ccccn1 | 95.5
COc1ccc2c(NC(=O)Nc3cccc(C(F)(F)F)n3)ccnc2c1 | 102
O=c1cc(N2CCOCC2)oc2c(-c3ccccc3)cccc12 | 95.6
O=C1C(SCCO)=C(SCCO)C(=O)c2ccccc21 | 0.154
Cc1nc(-c2ccccc2)sc1C(=O)Nc1ccc(S(N)(=O)=O)cc1 | 97.8
Cn1cc(-c2ccncc2)c(-c2ccc(OCc3ccc4ccccc4n3)cc2)n1 | 90.2
O=C(O)CC[N+](=O)[O-] [3-nitropropionic acid] | 114
C=CC(=O)c1ccc(O)cc1 [4-Acryloylphenol] | 93
Cc1[nH]nc(C(F)(F)F)c1Cc1sc2c(c1C(=O)N1C[C@](C)(O)CO1)c(=O)n(C)c(=O)n2C(C)C [AZD3965] | 0.26
O=c1cc(-c2ccccc2)oc2c1ccc1ccccc12 [Alpha-Naphtoflavone] | 111

Same assay, conditions: 10000 nM; 72 h

SMILES | cell viability [%]
CN(CCCOc1ccc(Cc2ccccc2)cc1)CCC(=O)O | 95.8
Cc1c2c(=O)n(-c3ccccc3Cl)[nH]c2cc(=O)n1Cc1ccccn1 | 81.4
COc1ccc2c(NC(=O)Nc3cccc(C(F)(F)F)n3)ccnc2c1 | 87.4
O=c1cc(N2CCOCC2)oc2c(-c3ccccc3)cccc12 | 48
O=C1C(SCCO)=C(SCCO)C(=O)c2ccccc21 | -0.205
Cc1nc(-c2ccccc2)sc1C(=O)Nc1ccc(S(N)(=O)=O)cc1 | 109
Cn1cc(-c2ccncc2)c(-c2ccc(OCc3ccc4ccccc4n3)cc2)n1 | 57.3
O=C(O)CC[N+](=O)[O-] [3-nitropropionic acid] | 93.7
C=CC(=O)c1ccc(O)cc1 [4-Acryloylphenol] | -1.1
Cc1[nH]nc(C(F)(F)F)c1Cc1sc2c(c1C(=O)N1C[C@](C)(O)CO1)c(=O)n(C)c(=O)n2C(C)C [AZD3965] | 0.551
O=c1cc(-c2ccccc2)oc2c1ccc1ccccc12 [Alpha-Naphtoflavone] | 108

These compounds were tested on HEL in the same assay as above. Settings: 1 nM; 72 h.
Method in brief: as §1

SMILES | cell viability [%]
CN(CCCOc1ccc(Cc2ccccc2)cc1)CCC(=O)O | 107
Cc1c2c(=O)n(-c3ccccc3Cl)[nH]c2cc(=O)n1Cc1ccccn1 | 77.9
COc1ccc2c(NC(=O)Nc3cccc(C(F)(F)F)n3)ccnc2c1 | 116
O=c1cc(N2CCOCC2)oc2c(-c3ccccc3)cccc12 | 133
O=C1C(SCCO)=C(SCCO)C(=O)c2ccccc21 | 110
Cc1nc(-c2ccccc2)sc1C(=O)Nc1ccc(S(N)(=O)=O)cc1 | 110
Cn1cc(-c2ccncc2)c(-c2ccc(OCc3ccc4ccccc4n3)cc2)n1 | 93
O=C(O)CC[N+](=O)[O-] [3-nitropropionic acid] | 92.8
C=CC(=O)c1ccc(O)cc1 [4-Acryloylphenol] | 80
Cc1[nH]nc(C(F)(F)F)c1Cc1sc2c(c1C(=O)N1C[C@](C)(O)CO1)c(=O)n(C)c(=O)n2C(C)C [AZD3965] | 84.2
O=c1cc(-c2ccccc2)oc2c1ccc1ccccc12 [Alpha-Naphtoflavone] | 96.1

Same assay, conditions: 10 nM; 72 h

SMILES | cell viability [%]
CN(CCCOc1ccc(Cc2ccccc2)cc1)CCC(=O)O | 113
Cc1c2c(=O)n(-c3ccccc3Cl)[nH]c2cc(=O)n1Cc1ccccn1 | 114
COc1ccc2c(NC(=O)Nc3cccc(C(F)(F)F)n3)ccnc2c1 | 99.2
O=c1cc(N2CCOCC2)oc2c(-c3ccccc3)cccc12 | 92.1
O=C1C(SCCO)=C(SCCO)C(=O)c2ccccc21 | 107
Cc1nc(-c2ccccc2)sc1C(=O)Nc1ccc(S(N)(=O)=O)cc1 | 112
Cn1cc(-c2ccncc2)c(-c2ccc(OCc3ccc4ccccc4n3)cc2)n1 | 119
O=C(O)CC[N+](=O)[O-] [3-nitropropionic acid] | 116
C=CC(=O)c1ccc(O)cc1 [4-Acryloylphenol] | 90.5
Cc1[nH]nc(C(F)(F)F)c1Cc1sc2c(c1C(=O)N1C[C@](C)(O)CO1)c(=O)n(C)c(=O)n2C(C)C [AZD3965] | 108
O=c1cc(-c2ccccc2)oc2c1ccc1ccccc12 [Alpha-Naphtoflavone] | 95.6

Same assay, conditions: 100 nM; 72 h

SMILES | cell viability [%]
CN(CCCOc1ccc(Cc2ccccc2)cc1)CCC(=O)O | 102
Cc1c2c(=O)n(-c3ccccc3Cl)[nH]c2cc(=O)n1Cc1ccccn1 | 88.2
COc1ccc2c(NC(=O)Nc3cccc(C(F)(F)F)n3)ccnc2c1 | 105
O=c1cc(N2CCOCC2)oc2c(-c3ccccc3)cccc12 | 23.1
O=C1C(SCCO)=C(SCCO)C(=O)c2ccccc21 | 103
Cc1nc(-c2ccccc2)sc1C(=O)Nc1ccc(S(N)(=O)=O)cc1 | 106
Cn1cc(-c2ccncc2)c(-c2ccc(OCc3ccc4ccccc4n3)cc2)n1 | 96.9
O=C(O)CC[N+](=O)[O-] [3-nitropropionic acid] | 117
C=CC(=O)c1ccc(O)cc1 [4-Acryloylphenol] | 94.7
Cc1[nH]nc(C(F)(F)F)c1Cc1sc2c(c1C(=O)N1C[C@](C)(O)CO1)c(=O)n(C)c(=O)n2C(C)C [AZD3965] | 116
O=c1cc(-c2ccccc2)oc2c1ccc1ccccc12 [Alpha-Naphtoflavone] | 102

Same assay, conditions: 1000 nM; 72 h

SMILES | cell viability [%]
CN(CCCOc1ccc(Cc2ccccc2)cc1)CCC(=O)O | 129
Cc1c2c(=O)n(-c3ccccc3Cl)[nH]c2cc(=O)n1Cc1ccccn1 | 103
COc1ccc2c(NC(=O)Nc3cccc(C(F)(F)F)n3)ccnc2c1 | 106
O=c1cc(N2CCOCC2)oc2c(-c3ccccc3)cccc12 | 98.9
O=C1C(SCCO)=C(SCCO)C(=O)c2ccccc21 | 69.8
Cc1nc(-c2ccccc2)sc1C(=O)Nc1ccc(S(N)(=O)=O)cc1 | 89.3
Cn1cc(-c2ccncc2)c(-c2ccc(OCc3ccc4ccccc4n3)cc2)n1 | 99.8
O=C(O)CC[N+](=O)[O-] [3-nitropropionic acid] | 98.8
C=CC(=O)c1ccc(O)cc1 [4-Acryloylphenol] | 115
Cc1[nH]nc(C(F)(F)F)c1Cc1sc2c(c1C(=O)N1C[C@](C)(O)CO1)c(=O)n(C)c(=O)n2C(C)C [AZD3965] | 111
O=c1cc(-c2ccccc2)oc2c1ccc1ccccc12 [Alpha-Naphtoflavone] | 96.4

Same assay, conditions: 10000 nM; 72 h

SMILES | cell viability [%]
CN(CCCOc1ccc(Cc2ccccc2)cc1)CCC(=O)O | 110
Cc1c2c(=O)n(-c3ccccc3Cl)[nH]c2cc(=O)n1Cc1ccccn1 | 106
COc1ccc2c(NC(=O)Nc3cccc(C(F)(F)F)n3)ccnc2c1 | 108
O=c1cc(N2CCOCC2)oc2c(-c3ccccc3)cccc12 | 78.1
O=C1C(SCCO)=C(SCCO)C(=O)c2ccccc21 | -0.489
Cc1nc(-c2ccccc2)sc1C(=O)Nc1ccc(S(N)(=O)=O)cc1 | 105
Cn1cc(-c2ccncc2)c(-c2ccc(OCc3ccc4ccccc4n3)cc2)n1 | 59.4
O=C(O)CC[N+](=O)[O-] [3-nitropropionic acid] | 104
C=CC(=O)c1ccc(O)cc1 [4-Acryloylphenol] | 26.6
Cc1[nH]nc(C(F)(F)F)c1Cc1sc2c(c1C(=O)N1C[C@](C)(O)CO1)c(=O)n(C)c(=O)n2C(C)C [AZD3965] | 109
O=c1cc(-c2ccccc2)oc2c1ccc1ccccc12 [Alpha-Naphtoflavone] | 102

What follows are compounds tested on HL-60 in the same assay as above. Settings: 1 nM; 72 h.
Method in brief: as §1

SMILES | cell viability [%]
CN(CCCOc1ccc(Cc2ccccc2)cc1)CCC(=O)O | 99.9
Cc1c2c(=O)n(-c3ccccc3Cl)[nH]c2cc(=O)n1Cc1ccccn1 | 71
COc1ccc2c(NC(=O)Nc3cccc(C(F)(F)F)n3)ccnc2c1 | 86.5
O=c1cc(N2CCOCC2)oc2c(-c3ccccc3)cccc12 | 130
O=C1C(SCCO)=C(SCCO)C(=O)c2ccccc21 | 123
Cc1nc(-c2ccccc2)sc1C(=O)Nc1ccc(S(N)(=O)=O)cc1 | 109
Cn1cc(-c2ccncc2)c(-c2ccc(OCc3ccc4ccccc4n3)cc2)n1 | 117
O=C(O)CC[N+](=O)[O-] [3-nitropropionic acid] | 52.3
C=CC(=O)c1ccc(O)cc1 [4-Acryloylphenol] | 90
Cc1[nH]nc(C(F)(F)F)c1Cc1sc2c(c1C(=O)N1C[C@](C)(O)CO1)c(=O)n(C)c(=O)n2C(C)C [AZD3965] | 79.9
O=c1cc(-c2ccccc2)oc2c1ccc1ccccc12 [Alpha-Naphtoflavone] | 118

Same assay, conditions: 10 nM; 72 h

SMILES | cell viability [%]
CN(CCCOc1ccc(Cc2ccccc2)cc1)CCC(=O)O | 102
Cc1c2c(=O)n(-c3ccccc3Cl)[nH]c2cc(=O)n1Cc1ccccn1 | 96.2
COc1ccc2c(NC(=O)Nc3cccc(C(F)(F)F)n3)ccnc2c1 | 129
O=c1cc(N2CCOCC2)oc2c(-c3ccccc3)cccc12 | 118
O=C1C(SCCO)=C(SCCO)C(=O)c2ccccc21 | 115
Cc1nc(-c2ccccc2)sc1C(=O)Nc1ccc(S(N)(=O)=O)cc1 | 85
Cn1cc(-c2ccncc2)c(-c2ccc(OCc3ccc4ccccc4n3)cc2)n1 | 92.7
O=C(O)CC[N+](=O)[O-] [3-nitropropionic acid] | 157
C=CC(=O)c1ccc(O)cc1 [4-Acryloylphenol] | 80.9
Cc1[nH]nc(C(F)(F)F)c1Cc1sc2c(c1C(=O)N1C[C@](C)(O)CO1)c(=O)n(C)c(=O)n2C(C)C [AZD3965] | 95.6
O=c1cc(-c2ccccc2)oc2c1ccc1ccccc12 [Alpha-Naphtoflavone] | 83.8

Same assay, conditions: 100 nM; 72 h

SMILES | cell viability [%]
CN(CCCOc1ccc(Cc2ccccc2)cc1)CCC(=O)O | 120
Cc1c2c(=O)n(-c3ccccc3Cl)[nH]c2cc(=O)n1Cc1ccccn1 | 94.5
COc1ccc2c(NC(=O)Nc3cccc(C(F)(F)F)n3)ccnc2c1 | 116
O=c1cc(N2CCOCC2)oc2c(-c3ccccc3)cccc12 | 103
O=C1C(SCCO)=C(SCCO)C(=O)c2ccccc21 | 122
Cc1nc(-c2ccccc2)sc1C(=O)Nc1ccc(S(N)(=O)=O)cc1 | 117
Cn1cc(-c2ccncc2)c(-c2ccc(OCc3ccc4ccccc4n3)cc2)n1 | 103
O=C(O)CC[N+](=O)[O-] [3-nitropropionic acid] | 104
C=CC(=O)c1ccc(O)cc1 [4-Acryloylphenol] | 97.5
Cc1[nH]nc(C(F)(F)F)c1Cc1sc2c(c1C(=O)N1C[C@](C)(O)CO1)c(=O)n(C)c(=O)n2C(C)C [AZD3965] | 111
O=c1cc(-c2ccccc2)oc2c1ccc1ccccc12 [Alpha-Naphtoflavone] | 95.6

Same assay, conditions: 1000 nM; 72 h

SMILES | cell viability [%]
CN(CCCOc1ccc(Cc2ccccc2)cc1)CCC(=O)O | 191
Cc1c2c(=O)n(-c3ccccc3Cl)[nH]c2cc(=O)n1Cc1ccccn1 | 90.8
COc1ccc2c(NC(=O)Nc3cccc(C(F)(F)F)n3)ccnc2c1 | 116
O=c1cc(N2CCOCC2)oc2c(-c3ccccc3)cccc12 | 0.801
O=C1C(SCCO)=C(SCCO)C(=O)c2ccccc21 | 101
Cc1nc(-c2ccccc2)sc1C(=O)Nc1ccc(S(N)(=O)=O)cc1 | 103
Cn1cc(-c2ccncc2)c(-c2ccc(OCc3ccc4ccccc4n3)cc2)n1 | 136
O=C(O)CC[N+](=O)[O-] [3-nitropropionic acid] | 108
C=CC(=O)c1ccc(O)cc1 [4-Acryloylphenol] | 105
Cc1[nH]nc(C(F)(F)F)c1Cc1sc2c(c1C(=O)N1C[C@](C)(O)CO1)c(=O)n(C)c(=O)n2C(C)C [AZD3965] | 113
O=c1cc(-c2ccccc2)oc2c1ccc1ccccc12 [Alpha-Naphtoflavone] | 104

Same assay, conditions: 10000 nM; 72 h

SMILES | cell viability [%]
CN(CCCOc1ccc(Cc2ccccc2)cc1)CCC(=O)O | 115
Cc1c2c(=O)n(-c3ccccc3Cl)[nH]c2cc(=O)n1Cc1ccccn1 | 105
COc1ccc2c(NC(=O)Nc3cccc(C(F)(F)F)n3)ccnc2c1 | 98.3
